ChEMBL document CHEMBL4825674, “Phorbol Esters from the Latex of Euphorbia umbellata: Bioguided Isolation of Highly Potent HIV-1 Latency Interrupters in Virus Reservoir Cells” (2021)

Legend:
[1] = tested on: Human immunodeficiency virus 1; assay: Reactivation of HIV-1 latency infected in GFP-fused J-Lat 10.6 cells assessed as HIV-1 latency reactivation in reservoir cells at 0.088 to 8.85 uM incubated for 24 hrs flow cytometry analysis; assay type: functional; conditions: dose 0.088-8.85 µM
MT4 = assay: Cytotoxicity against human MT4 cells assessed as cell viability at 1 ug/ml incubated for 24 hrs by CellTiter Blue viability assay; assay type: functional, cell-based; conditions: dose 1.0 µg/ml
[2] = tested on: Human immunodeficiency virus 1; assay: Reactivation of HIV-1 latency infected in GFP-fused J-Lat 10.6 cells assessed as HIV-1 latency reactivation in reservoir cells at 2.24 uM incubated for 24 hrs flow cytometry analysis; assay type: functional
[3] = tested on: Human immunodeficiency virus 1; assay: Reactivation of HIV-1 latency infected in GFP-fused J-Lat 10.6 cells assessed as HIV-1 latency reactivation in reservoir cells at 0.097 to 9.7 uM incubated for 24 hrs flow cytometry analysis; assay type: functional; conditions: dose 0.097-9.7 µM
[4] = Reduction in CD4 expression in human MT4 cells at 1.77 uM incubated for 24 hrs by flow cytometry analysis; assay type: functional; set-up: scale not given: the % may be the effect or the level left
[5] = Reduction in CD4 expression in human MT4 cells at 1.94 uM incubated for 24 hrs by flow cytometry analysis; assay type: functional; set-up: scale not given: the % may be the effect or the level left
[6] = Reduction in CD4 expression in human MT4 cells at 1.82 uM incubated for 24 hrs by flow cytometry analysis; assay type: functional; set-up: scale not given: the % may be the effect or the level left

Row | Structure (SMILES) | Activity [1] [%] | Activity (MT4) | Activity [2] [%] | Activity [3] [%] | Activity [4] [%] | Activity [5] [%] | Activity [6] [%]
1 | C/C=C(/C)C(=O)O[C@@H]1[C@@H](C)[C@]2(O)[C@@H]3C=C(C)C(=O)[C@@]3(O)[C@H](O)C(C)=C[C@H]2[C@H]2C(C)(C)[C@]12OC(=O)Cc1ccccc1 | 70 | Not toxic |  |  |  |  | 
2 | CCCCCC(=O)O[C@H]1C(C)=C[C@]23C(=O)[C@@H](C=C(CO)[C@@H](O)[C@]12O)[C@H]1[C@@H](C[C@H]3C)C1(C)C |  |  | 70 |  |  |  | 
3 | C/C=C(/C)C(=O)O[C@@H]1[C@@H](C)[C@]2(O)[C@@H]3C=C(C)C(=O)[C@@]3(O)[C@H](O)C(C)=C[C@H]2[C@H]2C(C)(C)[C@]12OC(=O)C(C)C |  | Not toxic |  | 70 | 40 | 40 | 40
